# Where a name gives a salt, the structure may show the parent alone. Read-outs that look alike come from different tables or passages of the source.
# What was measured:
# [1] = Solubility in a physiologically acceptable buffer (sodium phosphate buffer, pH 7.4); assay type: physicochemical; conditions: sodium phosphate buffer at pH 7.4
# Source text: The corresponding solubility of the parent compound is about 20 microgram.
# alkaline phosphatase = molecular target: T1, alkaline phosphatase (Bos taurus, UniProt P19111); experiment: Dephosphorylation by alkaline phosphatase in vitro; assay type: in vitro ADME; conditions: bovine, bovine alkaline phosphatase (type VII S, Sigma-Aldrich); phosphatase concentration of 10 units/ml, 37° C., pH 7.4; read-out: half-life time of dephosphorylation
# T1 construct: purchased Sigma-Aldrich type VII S
# T1 sequence (P19111 20-506 limits assumed): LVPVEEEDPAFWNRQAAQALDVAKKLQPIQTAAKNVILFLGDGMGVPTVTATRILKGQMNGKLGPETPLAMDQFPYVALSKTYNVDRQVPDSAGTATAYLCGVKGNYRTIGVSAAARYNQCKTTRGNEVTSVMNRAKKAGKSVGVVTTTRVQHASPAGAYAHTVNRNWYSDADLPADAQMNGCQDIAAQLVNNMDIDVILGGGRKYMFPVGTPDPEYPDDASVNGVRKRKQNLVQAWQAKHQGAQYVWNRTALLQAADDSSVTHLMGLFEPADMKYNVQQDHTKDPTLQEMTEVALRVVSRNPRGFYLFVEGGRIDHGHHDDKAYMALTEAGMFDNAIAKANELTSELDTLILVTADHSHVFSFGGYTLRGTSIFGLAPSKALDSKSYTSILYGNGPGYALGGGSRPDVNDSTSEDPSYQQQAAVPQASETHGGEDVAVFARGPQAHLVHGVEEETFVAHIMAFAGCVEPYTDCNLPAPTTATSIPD
# Source text: The ability of bovine alkaline phosphatase (type VII S, Sigma-Aldrich) to dephosphorylate the title compound was investigated in vitro. […] Intravenous administration of the title compound is consequently expected to result in a rapid formation of the active moiety (1R)-1-(3,4,5-trimethoxyphenyl)-2-formyl-5-hydroxy-6-methoxy-1,2,3,4-tetrahydroisoquinoline (see FIG. 1).
# [2] = test system: phospho-MAPK (Erk1/2) in DU-145 cells; experiment: Inhibition of IGF-1 stimulated phosphorylation of MAPK in DU-145 cells (immunoblotting); assay type: cell-based; conditions: Homo sapiens
# Procedure: (§1) DU-145 cells (prostate cancer) were incubated over night with the title compound in serum free medium. After stimulation for 15 minutes with IGF-1 (50 nM), the cells were lyzed and the lysates analysed by immunoblotting for phospho-MAPK and phospho-AKT.
# [3] = test system: phospho-AKT in DU-145 cells; experiment: Inhibition of IGF-1 stimulated phosphorylation of AKT in DU-145 cells (immunoblotting); assay type: cell-based; conditions: Homo sapiens, 0.25 h, incubated over night in serum free medium, IGF-1 (50 nM) stimulation 15 minutes
# Procedure: as §1
structure (smiles),measurement,setting,value
"COc1cc([C@@H]2c3ccc(OC)c(OP(=O)(O)O)c3CCN2C=O)cc(OC)c1OC (as salt: phosphate) [(1R)-1-(3,4,5-trimethoxyphenyl)-2-formyl-5-(dihydrogen phosphate)-6-methoxy-1,2,3,4-tetrahydroisoquinoline]",melting point,,138 to 141 °C
"COc1cc([C@@H]2c3ccc(OC)c(OP(=O)(O)O)c3CCN2C=O)cc(OC)c1OC [(1R)-1-(3,4,5-trimethoxyphenyl)-2-formyl-5-(dihydrogen phosphate)-6-methoxy-1,2,3,4-tetrahydroisoquinoline]",solubility,"[1]; aqueous buffer, read-out: solubility",> 50000 µg/mL
same,half-life,alkaline phosphatase,8 min
"COc1cc([C@@H]2c3cc4c(cc3[C@H](O)[C@H]3COC(=O)[C@@H]23)OCO4)cc(OC)c1OC [Picropodophyllin, reference compound]",IC50,"[2]; standard, read-out: IC50 inhibition of phospho-MAPK (Erk1/2)",~5000 nM
"COc1ccc2c(c1O)CCN(C=O)[C@@H]2c1cc(OC)c(OC)c(OC)c1 [(1R)-1-(3,4,5-trimethoxyphenyl)-2-formyl-5-hydroxy-6-methoxy-1,2,3,4-tetrahydroisoquinoline]",solubility,"[1]; aqueous buffer, parent compound, read-out: solubility",~20 µg/mL
same,solubility,[1]; parent compound,about 20 microgram
same,melting point,,190 to 192 °C
same,IC50,[3],40 nM
same,IC50,"[2]; 0.25 h, incubated over night in serum free medium, IGF-1 (50 nM) stimulation 15 minutes, read-out: IC50 inhibition of phosphorylation of MAPK (Erk1/2)",50 nM

# Source: US20090099133A1, “Isoquinolines Derivatives as Igf-1R Inhibitors” (priority 2005, published 2009)
